Measured values as given in patent US20050197350A1, “Novel quinoline, tetrahydroquinazoline, and pyrimidine derivatives and methods of treatment related to the use thereof” (TAISHO PHARMACEUTICAL CO., LTD., priority 2003, published 2005).

Each compound was assayed on MCH receptors (assay: MCH receptor activity class (method not given)). Details: class by percent of control at 10^−7 M or IC50.
For `Cc1cc(N(C)C)nc(N[C@H]2CC[C@@H](NC(=O)c3cncc(Br)c3)CC2)n1` [compound 2978, 5-bromo-N-(cis-4-{[4-(dimethylamino)-6-methylpyrimidin-2-yl]amino}cyclohexyl)nicotinamide], the class was 1 (Class 1: The value of percent of control at 10^−7 M was less than 40% or the value of IC50 was less than 50 nM.).
`Cc1cc(N(C)C)nc(N[C@H]2CC[C@@H](NC(=O)c3ccc(Br)o3)CC2)n1` [compound 2979, 5-bromo-N-(cis-4-{[4-(dimethylamino)-6-methylpyrimidin-2-yl]amino}cyclohexyl)-2-furamide] was tested, and the class was 1 (Class 1: The value of percent of control at 10^−7 M was less than 40% or the value of IC50 was less than 50 nM.).
`Cc1cc(N(C)C)nc(N[C@H]2CC[C@@H](NC(=O)c3ccc(Cl)o3)CC2)n1` [compound 2980, 5-chloro-N-(cis-4-{[4-(dimethylamino)-6-methylpyrimidin-2-yl]amino}cyclohexyl)-2-furamide] was tested, and the class was 1 (Class 1: The value of percent of control at 10^−7 M was less than 40% or the value of IC50 was less than 50 nM.).
`COc1ccc(C(=O)N[C@H]2CC[C@@H](Nc3nc(C)cc(N(C)C)n3)CC2)cc1C(F)(F)F` [compound 2981, N-(cis-4-{[4-(dimethylamino)-6-methylpyrimidin-2-yl]amino}cyclohexyl)-4-methoxy-3-(trifluoromethyl)benzamide] was tested, and the class was 2 (Class 2: The value of percent of control at 10^−7 M was from 40% to 60% or the value of IC′50 was from 50 nM to 200 nM.).
In the case of `Cc1cc(N(C)C)nc(N[C@H]2CC[C@@H](NC(=O)c3ccc(Cl)c(C(F)(F)F)c3)CC2)n1` [compound 2982], the class was 1 (Class 1: The value of percent of control at 10^−7 M was less than 40% or the value of IC50 was less than 50 nM.).
With `Cc1cccc(C(=O)N[C@H]2CC[C@@H](Nc3nc(C)cc(N(C)C)n3)CC2)c1` [compound 2983, N-(cis-4-{[4-(dimethylamino)-6-methylpyrimidin-2-yl]amino}cyclohexyl)-3-methylbenzamide] the class was 1 (Class 1: The value of percent of control at 10^−7 M was less than 40% or the value of IC50 was less than 50 nM.).
With `COc1cccc(C(=O)N[C@H]2CC[C@@H](Nc3nc(C)cc(N(C)C)n3)CC2)c1` [compound 2984, N-(cis-4-{[4-(dimethylamino)-6-methylpyrimidin-2-yl]amino}cyclohexyl)-3-methoxybenzamide] the class was 1 (Class 1: The value of percent of control at 10^−7 M was less than 40% or the value of IC50 was less than 50 nM.).
`Cc1ccc(C(=O)N[C@H]2CC[C@@H](Nc3nc(C)cc(N(C)C)n3)CC2)cc1` [compound 2985, N-(cis-4-{[4-(dimethylamino)-6-methylpyrimidin-2-yl]amino}cyclohexyl)-4-methylbenzamide] was tested, and the class was 1 (Class 1: The value of percent of control at 10^−7 M was less than 40% or the value of IC50 was less than 50 nM.).
With `Cc1cc(N(C)C)nc(N[C@H]2CC[C@@H](NC(=O)c3ccc(Cl)cc3)CC2)n1` [compound 2986] the class was 1 (Class 1: The value of percent of control at 10^−7 M was less than 40% or the value of IC50 was less than 50 nM.).
With `Cc1cc(N(C)C)nc(N[C@H]2CC[C@@H](NC(=O)c3cccc(Cl)c3)CC2)n1` [compound 2987] the class was 1 (Class 1: The value of percent of control at 10^−7 M was less than 40% or the value of IC50 was less than 50 nM.).
With `Cc1cc(N(C)C)nc(N[C@H]2CC[C@@H](NC(=O)c3ccc(F)c(F)c3)CC2)n1` [compound 2988, N-(cis-4-{[4-(dimethylamino)-6-methylpyrimidin-2-yl]amino}cyclohexyl)-3,4-difluorobenzamide] the class was 1 (Class 1: The value of percent of control at 10^−7 M was less than 40% or the value of IC50 was less than 50 nM.).
`Cc1cc(N(C)C)nc(N[C@H]2CC[C@@H](NC(=O)c3ccc(OC(F)(F)F)cc3)CC2)n1` [compound 2989, N-(cis-4-{[4-(dimethylamino)-6-methylpyrimidin-2-yl]amino}cyclohexyl)-4-(trifluoromethoxy)benzamide] was tested, and the class was 3 (Class 3 The value of percent of control at 10^−7 M was more than 60% or the value of IC50 was more than 200 nM.).
With `Cc1cc(N(C)C)nc(N[C@H]2CC[C@@H](NC(=O)c3ccc(F)cc3)CC2)n1` [compound 2990, N-(cis-4-{[4-(dimethylamino)-6-methylpyrimidin-2-yl]amino}cyclohexyl)-4-fluorobenzamide] the class was 1 (Class 1: The value of percent of control at 10^−7 M was less than 40% or the value of IC50 was less than 50 nM.).
`COc1cc(C(=O)N[C@H]2CC[C@@H](Nc3nc(C)cc(N(C)C)n3)CC2)cc(OC)c1OC` [compound 2991, N-(cis-4-{[4-(dimethylamino)-6-methylpyrimidin-2-yl]amino}cyclohexyl)-3,4,5-trimethoxybenzamide] was tested, and the class was 1 (Class 1: The value of percent of control at 10^−7 M was less than 40% or the value of IC50 was less than 50 nM.).
For `Cc1cc(N(C)C)nc(NC2CCC(NC(=O)c3cccc([N+](=O)[O-])c3)CC2)n1` (centres unmarked) [compound 2992, N-(4-{[4-(dimethylamino)-6-methylpyrimidin-2-yl]amino}cyclohexyl)-3-nitrobenzamide], the class was 1 (Class 1: The value of percent of control at 10^−7 M was less than 40% or the value of IC50 was less than 50 nM.).
In the case of `Cc1cc(N(C)C)nc(N[C@H]2CC[C@@H](NC(=O)C(c3ccccc3)c3ccccc3)CC2)n1` [compound 2993, N-(cis-4-{[4-(dimethylamino)-6-methylpyrimidin-2-yl]amino}cyclohexyl)-2,2-diphenylacetamide], the class was 1 (Class 1: The value of percent of control at 10^−7 M was less than 40% or the value of IC50 was less than 50 nM.).
`Cc1cc(N(C)C)nc(N[C@H]2CC[C@@H](NC(=O)c3ccc(Cl)c(Cl)c3)CC2)n1` [compound 2994, 3,4-dichloro-N-(cis-4-{[4-(dimethylamino)-6-methylpyrimidin-2-yl]amino}cyclohexyl)benzamide] was tested, and the class was 1 (Class 1: The value of percent of control at 10^−7 M was less than 40% or the value of IC50 was less than 50 nM.).
In the case of `Cc1cnc(N[C@H]2CC[C@@H](NS(=O)(=O)c3ccccc3)CC2)nc1N(C)C` [compound 2995, N-(cis-4-{[4-(dimethylamino)-5-methylpyrimidin-2-yl]amino}cyclohexyl)benzenesulfonamide], the class was 3 (Class 3 The value of percent of control at 10^−7 M was more than 60% or the value of IC50 was more than 200 nM.).
For `Cc1ccc(CN[C@H]2CC[C@@H](Nc3ncc(C)c(N(C)C)n3)CC2)cc1` [compound 2996], the class was 3 (Class 3 The value of percent of control at 10^−7 M was more than 60% or the value of IC50 was more than 200 nM.).
`Cc1cnc(N[C@H]2CC[C@@H](NCc3ccc(F)c(F)c3)CC2)nc1N(C)C` [compound 2997] was tested, and the class was 3 (Class 3 The value of percent of control at 10^−7 M was more than 60% or the value of IC50 was more than 200 nM.).
With `Cc1cnc(N[C@H]2CC[C@@H](NCc3cccc(Cl)c3)CC2)nc1N(C)C` [compound 2998] the class was 3 (Class 3 The value of percent of control at 10^−7 M was more than 60% or the value of IC50 was more than 200 nM.).
For `Cc1cnc(N[C@H]2CC[C@@H](NCc3cccc(Br)c3)CC2)nc1N(C)C` [compound 2999], the class was 3 (Class 3 The value of percent of control at 10^−7 M was more than 60% or the value of IC50 was more than 200 nM.).
For `COc1cc(CN[C@H]2CC[C@@H](Nc3ncc(C)c(N(C)C)n3)CC2)cc(OC)c1` [compound 3000], the class was 2 (Class 2: The value of percent of control at 10^−7 M was from 40% to 60% or the value of IC′50 was from 50 nM to 200 nM.).
With `Cc1cnc(N[C@H]2CC[C@@H](NCc3cc(Cl)cc(Cl)c3)CC2)nc1N(C)C` [compound 3001] the class was 3 (Class 3 The value of percent of control at 10^−7 M was more than 60% or the value of IC50 was more than 200 nM.).
In the case of `Cc1cnc(N[C@H]2CC[C@@H](NCc3ccc(Cl)c(Cl)c3)CC2)nc1N(C)C` [compound 3002], the class was 3 (Class 3 The value of percent of control at 10^−7 M was more than 60% or the value of IC50 was more than 200 nM.).
With `COc1ccc(CN[C@H]2CC[C@@H](Nc3ncc(C)c(N(C)C)n3)CC2)cc1C` [compound 3003] the class was 3 (Class 3 The value of percent of control at 10^−7 M was more than 60% or the value of IC50 was more than 200 nM.).
For `Cc1cnc(N[C@H]2CC[C@@H](NCc3cccc(OC(F)(F)F)c3)CC2)nc1N(C)C` [compound 3004], the class was 3 (Class 3 The value of percent of control at 10^−7 M was more than 60% or the value of IC50 was more than 200 nM.).
`Cc1cc(N(C)C)nc(N[C@H]2CC[C@@H](NCc3cccc(OC(F)(F)F)c3)CC2)n1` [compound 3005] was tested, and the class was 3 (Class 3 The value of percent of control at 10^−7 M was more than 60% or the value of IC50 was more than 200 nM.).
With `CN(C)c1nc(N[C@H]2CC[C@@H](NC(=O)c3ccc(F)c(F)c3)CC2)ncc1C(F)(F)F` [compound 3006] the class was 3 (Class 3 The value of percent of control at 10^−7 M was more than 60% or the value of IC50 was more than 200 nM.).
In the case of `Cc1cnc(N[C@H]2CC[C@@H](CNC(=O)c3cccnc3Oc3ccc(Br)cc3)C2)nc1N(C)C` [compound 3012], the class was 2 (Class 2: The value of percent of control at 10^−7 M was from 40% to 60% or the value of IC′50 was from 50 nM to 200 nM.).
For `COc1ccccc1Oc1ncccc1C(=O)NC[C@@H]1CC[C@H](Nc2ncc(C)c(N(C)C)n2)C1` [compound 3013], the class was 1 (Class 1: The value of percent of control at 10^−7 M was less than 40% or the value of IC50 was less than 50 nM.).
In the case of `Cc1cnc(N[C@H]2CC[C@@H](CNC(=O)c3cccnc3Oc3ccccc3Br)C2)nc1N(C)C` [compound 3014], the class was 3 (Class 3 The value of percent of control at 10^−7 M was more than 60% or the value of IC50 was more than 200 nM.).
`Cc1cnc(N[C@H]2CC[C@@H](CNC(=O)c3cccnc3Oc3ccccc3F)C2)nc1N(C)C` [compound 3015] was tested, and the class was 1 (Class 1: The value of percent of control at 10^−7 M was less than 40% or the value of IC50 was less than 50 nM.).
With `Cc1cnc(N[C@H]2CC[C@@H](CNC(=O)c3cccnc3Oc3cccc(F)c3)C2)nc1N(C)C` [compound 3017] the class was 3 (Class 3 The value of percent of control at 10^−7 M was more than 60% or the value of IC50 was more than 200 nM.).
With `Cc1cnc(N[C@H]2CC[C@@H](CNC(=O)c3cccnc3Oc3cccc(Cl)c3)C2)nc1N(C)C` [compound 3018] the class was 3 (Class 3 The value of percent of control at 10^−7 M was more than 60% or the value of IC50 was more than 200 nM.).
